Laboratory results from US12209072B2, “Cyclopentyl acids as LPA antagonists” (BRISTOL-MYERS SQUIBB COMPANY, priority 2018, dated 2025).

Biological target: T1, human LPA1 (Homo sapiens, UniProt Q92633)
T1 construct: expressed in transfected cells; host or cells: Chinese hamster ovary (CHO) cells
Experiment: LPA1 functional antagonist assay (LPA-induced calcium flux)
Format: cell-based
Conditions: CHO cells overexpressing human LPA1; inhibition of calcium flux induced by 10 nM LPA; read-out: hLPA1 IC50
How it was run: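 CHO cells overexpressing human LPA1, loaded with calcium dye, given compound (0.08 nM–5 μM final, 0.5% DMSO) for 20 min at room temperature in HBSS/HEPES with 0.1% fatty-acid-free BSA, then stimulated with 10 nM LPA. IC50 defined as 50% inhibition of LPA-induced calcium flux, from 4-parameter logistic fit.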

T1 sequence (Q92633 whole entry): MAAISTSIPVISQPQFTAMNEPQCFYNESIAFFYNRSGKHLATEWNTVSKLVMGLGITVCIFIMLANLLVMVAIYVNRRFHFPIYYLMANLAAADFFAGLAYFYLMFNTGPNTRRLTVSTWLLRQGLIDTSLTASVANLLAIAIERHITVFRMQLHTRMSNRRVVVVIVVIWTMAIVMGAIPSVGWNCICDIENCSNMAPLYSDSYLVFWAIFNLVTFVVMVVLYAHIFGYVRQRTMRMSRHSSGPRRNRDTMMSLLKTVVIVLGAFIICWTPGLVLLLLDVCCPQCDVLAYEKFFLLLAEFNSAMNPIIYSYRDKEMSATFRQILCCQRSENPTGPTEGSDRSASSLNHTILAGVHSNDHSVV

Row | IC50 [nM] | SMILES
1 | 952 | CCCCN(C)C(=O)OCc1c(-c2ccc(O[C@H]3CC[C@H](CC(=O)O)C3)c(C)n2)nnn1C (single isomer, unassigned) [Example 5, (±)-Trans-2-(3-((6-(5-(((butyl(methyl)carbamoyl)oxy)methyl)-1-methyl-1H-1,2,3-triazol-4-yl)-2-methylpyridin-3-yl)oxy)cyclopentyl)acetic Acid]
2 | 11 | Cc1nc(-c2nnn(C)c2COC(=O)N(C)CC2CCC2)ccc1O[C@H]1CC[C@H](CC(=O)O)C1 (single isomer, unassigned) [Example 6, (±)-Trans-2-((1,3)-3-((6-(5-((((cyclobutylmethyl)(methyl)carbamoyl)oxy)methyl)-1-methyl-1H-1,2,3-triazol-4-yl)-2-methylpyridin-3-yl)oxy)cyclopentyl) acetic Acid]
3 | 416 | Cc1nc(-c2cnn(C)c2COC(=O)N(C)CC2CCC2)cnc1O[C@H]1CC[C@H](C(=O)O)C1 (single isomer, unassigned) [Example 17]
4 | 17 | Cc1noc(-c2ccc(OC3CCC(C(=O)O)C3)cn2)c1CNc1nccc(-c2ccccc2)n1 (single isomer, unassigned) [Example 45]

The next lines start with the compound.

Row | SMILES | IC50 [nM]
5 | Cc1nc(-c2nnn(C)c2COC(=O)N(C)CC2CCC2)ccc1O[C@H]1CC[C@H](CC(=O)O)C1 (single isomer, unassigned) [Example 7, (±)-Trans-2-((1,3)-3-((6-(5-((((cyclobutylmethyl)(methyl)carbamoyl)oxy)methyl)-1-methyl-1H-1,2,3-triazol-4-yl)-2-methylpyridin-3-yl)oxy)cyclopentyl) acetic Acid] | 750
6 | Cc1nc(-c2cnn(C)c2CNC(=O)OCc2ccccc2)cnc1O[C@H]1CC[C@H](C(=O)O)C1 (single isomer, unassigned) [Example 19, Trans-3-((5-(5-((((benzyloxy)carbonyl)amino)methyl)-1-methyl-1H-pyrazol-4-yl)-3-methylpyrazin-2-yl)oxy)cyclopentanecarboxylic Acid] | 202
7 | Cc1nc(-c2nnn(C)c2CNC(=O)OCc2ccccc2)ccc1O[C@@H]1CC[C@@H](C(=O)O)C1 (single isomer, unassigned) [Example 21, Trans-3-((6-(5-((((benzyloxy)carbonyl)amino)methyl)-1-methyl-1H-1,2,3-triazol-4-yl)-2-methyl-pyridin-3-yl)oxy)cyclopentane carboxylic acid] | 56
8 | Cc1nc(-c2nnn(C)c2COC(=O)N(C)CC2CCC2)cnc1O[C@H]1CC[C@H](CC(=O)O)C1 (single isomer, unassigned) [Example 27, 2-(trans-3-((5-(5-((((cyclobutylmethyl)(methyl)carbamoyl)oxy)methyl)-1-methyl-1H-1,2,3-triazol-4-yl)-3-methylpyrazin-2-yl)oxy)cyclopentyl)acetic Acid] | 260
9 | Cc1nc(-c2nnn(C)c2COC(=O)N(C)CC2CCC2)cnc1O[C@H]1CC[C@H](CC(=O)O)C1 (single isomer, unassigned) [Example 28, 2-(trans-3-((5-(5-((((cyclobutylmethyl)(methyl)carbamoyl)oxy)methyl)-1-methyl-1H-1,2,3-triazol-4-yl)-3-methylpyrazin-2-yl)oxy)cyclopentyl)acetic Acid] | 3750
10 | Cc1nc(-c2nnn(C)c2COC(=O)N(C)CC2CCC2)ccc1OC[C@@H]1CC[C@H](C(=O)O)C1 (single isomer, unassigned) [Example 31] | 10.8
11 | Cc1nc(-c2nnn(C)c2COC(=O)N(C)CC2CCC2)ccc1OC[C@H]1CC[C@@H](C(=O)O)C1 (single isomer, unassigned) [Example 32] | 9.7
12 | Cc1noc(-c2ccc(OC3CCC(C(=O)O)C3)cn2)c1CNc1nccc(-c2ccccc2)n1 (single isomer, unassigned) [Example 43] | 50
13 | Cc1noc(-c2ccc(OC3CCC(C(=O)O)C3)cn2)c1CNc1nccc(-c2ccccc2)n1 (single isomer, unassigned) [Example 44] | 158
14 | Cc1noc(-c2ccc(OC3CCC(C(=O)O)C3)cn2)c1CNc1nccc(-c2ccccc2)n1 (single isomer, unassigned) [Example 46] | 56
